These compounds were tested against PI3K delta (Homo sapiens, UniProt O00329) (assay: Luciferase-coupled chemiluminescence kinase assay (ATP consumption, KinaseGlo)).
Assay type: biochemical
Outline: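 Compound, kinase and ATP (≤ KM) reacted 2 h at ambient temperature, then remaining ATP quantified with luciferase-luciferin (KinaseGlo) luminescence as percent consumed.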

Chain of PI3K delta (O00329 whole entry): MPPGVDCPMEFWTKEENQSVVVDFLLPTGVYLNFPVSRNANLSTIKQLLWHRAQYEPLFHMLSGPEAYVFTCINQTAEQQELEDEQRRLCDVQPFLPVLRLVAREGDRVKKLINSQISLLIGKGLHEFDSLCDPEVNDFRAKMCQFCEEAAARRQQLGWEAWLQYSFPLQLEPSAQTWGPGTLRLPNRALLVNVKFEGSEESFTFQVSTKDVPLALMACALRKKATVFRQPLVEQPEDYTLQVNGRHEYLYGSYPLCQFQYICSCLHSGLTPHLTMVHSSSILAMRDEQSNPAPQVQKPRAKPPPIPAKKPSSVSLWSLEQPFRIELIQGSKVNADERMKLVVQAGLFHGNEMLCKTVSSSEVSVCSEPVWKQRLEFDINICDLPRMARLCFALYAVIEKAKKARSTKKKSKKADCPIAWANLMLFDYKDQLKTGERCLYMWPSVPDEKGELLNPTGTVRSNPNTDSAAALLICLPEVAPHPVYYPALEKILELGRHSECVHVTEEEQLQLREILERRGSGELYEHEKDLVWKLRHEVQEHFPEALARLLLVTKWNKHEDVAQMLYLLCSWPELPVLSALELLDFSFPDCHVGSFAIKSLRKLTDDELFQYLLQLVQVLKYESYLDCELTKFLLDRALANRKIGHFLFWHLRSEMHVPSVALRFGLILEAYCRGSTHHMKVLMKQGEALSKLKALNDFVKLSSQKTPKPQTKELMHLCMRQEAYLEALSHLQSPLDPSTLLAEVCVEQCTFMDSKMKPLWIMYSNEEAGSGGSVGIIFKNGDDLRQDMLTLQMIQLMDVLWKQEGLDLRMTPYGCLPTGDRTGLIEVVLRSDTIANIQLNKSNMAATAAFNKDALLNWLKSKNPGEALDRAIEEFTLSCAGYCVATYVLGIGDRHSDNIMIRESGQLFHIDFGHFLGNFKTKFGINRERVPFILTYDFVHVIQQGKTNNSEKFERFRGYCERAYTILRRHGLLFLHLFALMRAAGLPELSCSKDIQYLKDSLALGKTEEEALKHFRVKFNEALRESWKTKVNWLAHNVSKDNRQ
Chain of PI3K delta (P27986 whole entry partner): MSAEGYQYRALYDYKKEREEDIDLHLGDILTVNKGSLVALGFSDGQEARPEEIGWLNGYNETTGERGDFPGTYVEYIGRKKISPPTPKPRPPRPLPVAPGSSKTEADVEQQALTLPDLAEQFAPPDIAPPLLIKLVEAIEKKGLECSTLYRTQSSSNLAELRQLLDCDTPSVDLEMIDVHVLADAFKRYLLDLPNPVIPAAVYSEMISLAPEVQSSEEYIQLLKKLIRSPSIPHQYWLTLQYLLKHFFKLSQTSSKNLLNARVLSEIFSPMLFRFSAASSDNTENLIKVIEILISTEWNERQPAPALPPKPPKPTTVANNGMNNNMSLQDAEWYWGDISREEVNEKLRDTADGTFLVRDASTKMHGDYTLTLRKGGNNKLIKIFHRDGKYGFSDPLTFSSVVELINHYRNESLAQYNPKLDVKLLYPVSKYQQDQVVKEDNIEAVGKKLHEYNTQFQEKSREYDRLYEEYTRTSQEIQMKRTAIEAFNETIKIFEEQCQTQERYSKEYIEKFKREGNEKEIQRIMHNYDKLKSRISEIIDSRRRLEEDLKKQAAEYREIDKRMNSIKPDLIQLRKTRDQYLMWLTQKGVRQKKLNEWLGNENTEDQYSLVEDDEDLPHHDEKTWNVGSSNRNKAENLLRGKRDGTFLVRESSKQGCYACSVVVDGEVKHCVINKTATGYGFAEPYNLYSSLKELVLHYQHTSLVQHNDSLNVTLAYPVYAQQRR

IC50 [nM]	Compound
500 to 1500	COc1cc(C)ccc1S(=O)(=O)N1CCN(c2ncnc3c2nc(-c2cnn(C)c2)n3C)CC1 [Compound 385, 9-methyl-6-(4-{[4-methyl-2-(methyloxy)phenyl]sulfonyl}-piperazin-1-yl)-8-(1-methyl-1H-pyrazol-4-yl)-9H-purine]
250 to 500	Cc1cccc(Cl)c1S(=O)(=O)N1CCN(c2ncnc3c2nc(-c2cnn(C)c2)n3C)CC1 [Compound 386, 6-{4-[(2-chloro-6-methylphenyl)sulfonyl]piperazin-1-yl)-9-methyl-8-(1-methyl-1H-pyrazol-4-yl)-9H-purine]
500 to 1500	COc1ccc(S(=O)(=O)N2CCN(c3ncnc4c3nc(-c3cnn(C)c3)n4C)CC2)cc1OC [Compound 387, 6-(4-{[3,4-bis(methyloxy)phenyl]sulfonyl}-piperazin-1-yl)-9-methyl-8-(1-methyl-1H-pyrazol-4-yl)-9H-purine]
50 to 250	COc1ccc(Cl)cc1S(=O)(=O)N1CCN(c2ncnc3c2nc(-c2cnn(C)c2)n3C)CC1 [Compound 388, 6-(4-{[5-chloro-2-(methyloxy)phenyl]sulfonyl}-piperazin-1-yl)-9-methyl-8-(1-methyl-1H-pyrazol-4-yl)-9H-purine]
250 to 500	Cn1cc(-c2nc3c(N4CCN(S(=O)(=O)c5cccc(Cl)c5Cl)CC4)ncnc3n2C)cn1 [Compound 389, 6-{4-[(2,3-dichlorophenyl)sulfonyl]piperazin-1-yl}-9-methyl-8-(1-methyl-1H-pyrazol-4-yl)-9H-purine]
500 to 1500	Cn1cc(-c2nc3c(N4CCN(S(=O)(=O)c5cccnc5Cl)CC4)ncnc3n2C)cn1 [Compound 390, 6-{4-[(2-chloropyridin-3-yl)sulfonyl]piperazin-1-yl}-9-methyl-8-(1-methyl-1H-pyrazol-4-yl)-9H-purine]
250 to 500	Cn1cc(-c2nc3c(N4CCN(S(=O)(=O)c5c(Cl)cccc5Cl)CC4)ncnc3n2C)cn1 [Compound 391, 6-{4-[(2,6-dichlorophenyl)sulfonyl]piperazin-1-yl}-9-methyl-8-(1-methyl-1H-pyrazol-4-yl)-9H-purine]
500 to 1500	Cn1cc(-c2nc3c(N4CCN(S(=O)(=O)c5ccc(Cl)cc5Cl)CC4)ncnc3n2C)cn1 [Compound 392, 6-{4-[(2,4-dichlorophenyl)sulfonyl]piperazin-1-yl}-9-methyl-8-(1-methyl-1H-pyrazol-4-yl)-9H-purine]
500 to 1500	Cc1c(-c2nc3c(N4CCC5(CC4)C(=O)Nc4ccccc45)ncnc3n2C)cnn1C [Compound 393, 1′-(8-(1,5-dimethyl-1H-pyrazol-4-yl)-9-methyl-9H-purin-6-yl)spiro[indoline-3,4′-piperidin]-2-one]
< 50	Cc1[nH]ncc1-c1nc2c(N3CCC(n4c(=O)[nH]c5ncccc54)CC3)ncnc2n1C [Compound 394, 1-{1-[9-methyl-8-(5-methyl-1H-pyrazol-4-yl)-9H-purin-6-yl]piperidin-4-yl}-1,3-dihydro-2H-imidazo[4,5-b]pyridin-2-one]
500 to 1500	Cn1c(C(=O)NCCc2ccccc2)nc2c(N3CCC4(CC3)C(=O)Nc3ccccc34)ncnc21 [Compound 395, 9-methyl-6-(2-oxo-1,2-dihydro-1′H-spiro[indole-3,4′-piperidin]-1′-yl)-N-(2-phenylethyl)-9H-purine-8-carboxamide]
50 to 250	Cn1c(C(=O)N2CC[C@H](F)C2)nc2c(N3CCC(n4c(=O)[nH]c5ccccc54)CC3)ncnc21 [Compound 396, 1-[1-(8-{[(3S)-3-fluoropyrrolidin-1-yl]carbonyl)-9-methyl-9H-purin-6-yl)piperidin-4-yl]-1,3-dihydro-2H-benzimidazol-2-one]
500 to 1500	CN(C)CCN1C(=O)C2(CCN(c3ncnc4c3nc(C(=O)NCC3CC3)n4C)CC2)c2ccccc21 [Compound 397, N-(cyclopropylmethyl)-6-{1-[2-(dimethylamino)ethyl]-2-oxo-1,2-dihydro-1′H-spiro[indole-3,4′-piperidin]-1′-yl}-9-methyl-9H-purine-8-carboxamide]

— patent US20140058103A1, “Inhibitors of PI3K-Delta and Methods of Their Use and Manufacture” (Exelixis, Inc., priority 2010, published 2014)
